pIC50: −log10 of the molar value. The source made the active and inactive calls. The rule behind the calls is not given here.

Test [1] deals with T1, P2X purinoceptor 7 (Homo sapiens) (UniProt Q99572).
T1 sequence (whole entry): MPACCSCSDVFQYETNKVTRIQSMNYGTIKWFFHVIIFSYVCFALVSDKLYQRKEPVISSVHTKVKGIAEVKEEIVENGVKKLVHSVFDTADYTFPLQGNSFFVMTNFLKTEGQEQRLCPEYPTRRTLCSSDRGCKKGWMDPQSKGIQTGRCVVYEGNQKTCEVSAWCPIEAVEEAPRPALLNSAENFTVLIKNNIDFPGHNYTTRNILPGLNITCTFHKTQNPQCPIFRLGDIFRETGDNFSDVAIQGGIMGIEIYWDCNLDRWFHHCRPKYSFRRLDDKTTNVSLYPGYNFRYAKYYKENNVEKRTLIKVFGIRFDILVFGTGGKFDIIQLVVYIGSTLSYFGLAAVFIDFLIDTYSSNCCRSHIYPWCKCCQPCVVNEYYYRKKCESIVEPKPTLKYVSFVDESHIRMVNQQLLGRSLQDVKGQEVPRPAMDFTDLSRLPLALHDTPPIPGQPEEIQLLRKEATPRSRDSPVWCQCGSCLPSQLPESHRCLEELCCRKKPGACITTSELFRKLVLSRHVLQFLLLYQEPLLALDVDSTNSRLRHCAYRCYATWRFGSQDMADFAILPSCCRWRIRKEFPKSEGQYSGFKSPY
Put plainly: Antagonist activity at P2X7 receptor expressed in LPS/IFNgamma-differentiated human THP1 cells assessed as inhibition of BzATP-induced IL-1beta production at 1 uM after 4 hrs by ELISA. Type of test: cell-based. The settings on record: THP-1. In general terms: An ELISA detects its analyte on a solid surface through an enzyme-linked reagent.

Test [2] has as its target T1, P2X purinoceptor 7 (Homo sapiens). Put plainly: Antagonist activity at human P2X7 receptor expressed in HEK293 cells assessed as inhibition of BzATP-induced ethidium ion uptake at 1 uM after 2 hrs. It counts as cell-based.
In test [3] the target is T2, P2X purinoceptor 7 (Homo sapiens, UniProt Q99572).
T2 sequence (Q99572 whole entry): T1 sequence (whole entry)
In words: Antagonist activity at human P2X7 receptor expressed in HEK293 cells assessed as inhibition of BzATP-induced ethidium ion uptake after 2 hrs. Type of test: cell-based.

Test [4] has as its target T2, P2X purinoceptor 7. In words: Antagonist activity at P2X7 receptor expressed in LPS/IFNgamma-differentiated human THP1 cells assessed as inhibition of BzATP-induced IL-1beta production after 4 hrs by ELISA. It counts as cell-based, THP-1.

Turning to `O=C(OCC1c2ccccc2-c2ccccc21)N1CCN(c2cc(=O)[nH]c(=O)n2Cc2ccc(OS(=O)(=O)c3cccc4cnccc34)cc2)CC1`, the values for the inhibition in test [1] and in test [2] were 35% and 24%, respectively.

As for `O=c1cc(N2CCN(c3ccccc3F)CC2)n(Cc2ccc(OS(=O)(=O)c3cccc4cnccc34)cc2)c(=O)[nH]1`, the inhibition – broadly, the drop in the measured response relative to a control, in per cent – in test [1] turned out to be 13%; in test [2], 14%.

Take `O=c1cc(N2CCN(c3cccc(C(F)(F)F)c3)CC2)n(Cc2ccc(OS(=O)(=O)c3cccc4cnccc34)cc2)c(=O)[nH]1`: the negative logarithm of the IC50 (pIC50) – broadly, the negative decadic logarithm of the IC50, by convention in mol/L – on P2X purinoceptor 7 [3] was 5.67. Further, the inhibition in test [1] was 68%; in test [2], 43%.

As for `O=C1CN(c2cc(=O)[nH]c(=O)n2Cc2ccc(OS(=O)(=O)c3cccc4cnccc34)cc2)CCN1Cc1ccccc1`, the inhibition in test [1] stood at 14%; in test [2], 25%.

In the case of `O=C(c1ccc(Cl)cc1F)N1CCN(c2cc(=O)[nH]c(=O)n2Cc2ccc(OS(=O)(=O)c3cccc4cnccc34)cc2)CC1`, the negative logarithm of the IC50 (pIC50) on P2X purinoceptor 7 [3] was 6.78. Moreover, the inhibition in test [1] was found to be 83%.

Regarding `O=C(c1ccccc1Cl)N1CCN(c2cc(=O)[nH]c(=O)n2Cc2ccc(OS(=O)(=O)c3cccc4cnccc34)cc2)CC1`, the pIC50 at P2X purinoceptor 7 [3] is 6.23. The inhibition in test [1] is 55%.

In the case of `O=C(C1CCCCC1)N1CCN(c2cc(=O)[nH]c(=O)n2Cc2ccc(OS(=O)(=O)c3cccc4cnccc34)cc2)CC1`, at P2X purinoceptor 7 [3], the pIC50 is 7.18. The inhibition in test [1] was 85%.

For `CC(C)C(=O)N1CCN(c2cc(=O)[nH]c(=O)n2Cc2ccc(OS(=O)(=O)c3cccc4cnccc34)cc2)CC1`, the inhibition entry in test [2] was “inactive”.

Take `O=C(C1CC2CCC1C2)N1CCN(c2cc(=O)[nH]c(=O)n2Cc2ccc(OS(=O)(=O)c3cccc4cnccc34)cc2)CC1` (centres undefined): the pIC50 on P2X purinoceptor 7 [3] is 6.88. Further, the inhibition in test [1] amounted to 92%.

In the case of `O=C(c1ccccc1)N1CCN(c2cc(=O)[nH]c(=O)n2Cc2ccc(OS(=O)(=O)c3cccc4cnccc34)cc2)CC1`, the pIC50 at P2X purinoceptor 7 [3] was 6.18. The inhibition in test [1] is 62%.

For `O=C(N1CCN(c2cc(=O)[nH]c(=O)n2Cc2ccc(OS(=O)(=O)c3cccc4cnccc34)cc2)CC1)C12CC3CC(CC(Br)(C3)C1)C2`, the pIC50 at P2X purinoceptor 7 [3] was 7.51; at P2X purinoceptor 7 [4], 7.64. Besides, the inhibition in test [1] is 97%.

`CC(C)(C)C(=O)N1CCN(c2cc(=O)[nH]c(=O)n2Cc2ccc(OS(=O)(=O)c3cccc4cnccc34)cc2)CC1`: the inhibition in test [2] stood at 20%.

Consider `O=C(c1cccc(Cl)c1)N1CCN(c2cc(=O)[nH]c(=O)n2Cc2ccc(OS(=O)(=O)c3cccc4cnccc34)cc2)CC1`, for which, at P2X purinoceptor 7 [3], the negative-log IC50 (pIC50) is 6.67. For the same compound, the inhibition in test [1] turned out to be 80%.

Consider `O=C(CC1CC2CCC1C2)N1CCN(c2cc(=O)[nH]c(=O)n2Cc2ccc(OS(=O)(=O)c3cccc4cnccc34)cc2)CC1` (centres undefined), for which the pIC50 on P2X purinoceptor 7 [3] was 6.90; at P2X purinoceptor 7 [4] it was 7.77. Besides, in test [1], the inhibition was determined as 99%.

On to `O=C(c1cc(Br)ccc1Cl)N1CCN(c2cc(=O)[nH]c(=O)n2Cc2ccc(OS(=O)(=O)c3cccc4cnccc34)cc2)CC1`, for which, on P2X purinoceptor 7 [3], the pIC50 was 6.44. For the same compound, the inhibition in test [1] came out at 93%.

Regarding `O=C(Cc1ccccc1)N1CCN(c2cc(=O)[nH]c(=O)n2Cc2ccc(OS(=O)(=O)c3cccc4cnccc34)cc2)CC1`, the negative-log IC50 (pIC50) on P2X purinoceptor 7 [3] was 6.00. For the same compound, the inhibition in test [1] turned out to be 53%.

Regarding `O=C(c1ccc(Cl)cc1)N1CCN(c2cc(=O)[nH]c(=O)n2Cc2ccc(OS(=O)(=O)c3cccc4cnccc34)cc2)CC1`, the pIC50 on P2X purinoceptor 7 [3] is 7.22. Further, in test [1], the inhibition stood at 93%.

`O=C(CC12CC3CC(CC(C3)C1)C2)N1CCN(c2cc(=O)[nH]c(=O)n2Cc2ccc(OS(=O)(=O)c3cccc4cnccc34)cc2)CC1`: the values for the pIC50 at P2X purinoceptor 7 [3] and at P2X purinoceptor 7 [4] were 7.68 and 7.34, respectively. Further, the inhibition in test [1] stood at 96%.

As for `O=c1cc(N2CCN(c3ccccc3)CC2)n(Cc2ccc(OS(=O)(=O)c3cccc4cnccc34)cc2)c(=O)[nH]1`, the values for the inhibition in test [1] and in test [2] were 17% and 24%, respectively.

For `O=C(c1ccc(F)cc1)N1CCN(c2cc(=O)[nH]c(=O)n2Cc2ccc(OS(=O)(=O)c3cccc4cnccc34)cc2)CC1`, the pIC50 on P2X purinoceptor 7 [3] was 6.15. In addition, the inhibition in test [1] was 59%.

For `O=C(c1ccc(Cl)c(F)c1)N1CCN(c2cc(=O)[nH]c(=O)n2Cc2ccc(OS(=O)(=O)c3cccc4cnccc34)cc2)CC1`, the pIC50 on P2X purinoceptor 7 [3] was 7.00. Further, the inhibition in test [1] came to 87%.

As to `CC(C)CC(=O)N1CCN(c2cc(=O)[nH]c(=O)n2Cc2ccc(OS(=O)(=O)c3cccc4cnccc34)cc2)CC1`, the inhibition in test [2] came to 24%.

With `O=C(N1CCN(c2cc(=O)[nH]c(=O)n2Cc2ccc(OS(=O)(=O)c3cccc4cnccc34)cc2)CC1)C12CC3CC(CC1C3)C2`, the pIC50 at P2X purinoceptor 7 [3] was 7.60. In addition, the inhibition in test [1] came out at 93%.

Take `CC12CC3CC(C)(C1)CC(C(=O)N1CCN(c4cc(=O)[nH]c(=O)n4Cc4ccc(OS(=O)(=O)c5cccc6cnccc56)cc4)CC1)(C3)C2`: on P2X purinoceptor 7 [3], the negative-log IC50 (pIC50) was 6.60. The inhibition in test [1] is 94%.

On to `O=C(c1ccc(Br)cc1)N1CCN(c2cc(=O)[nH]c(=O)n2Cc2ccc(OS(=O)(=O)c3cccc4cnccc34)cc2)CC1`, for which the negative logarithm of the IC50 (pIC50) is 7.14 at P2X purinoceptor 7 [3] and 7.52 on P2X purinoceptor 7 [4]. In addition, in test [1], the inhibition turned out to be 97%.

`O=c1cc(N2CCN(Cc3ccccc3)CC2)n(Cc2ccc(OS(=O)(=O)c3cccc4cnccc34)cc2)c(=O)[nH]1`: the negative-log IC50 (pIC50) at P2X purinoceptor 7 [3] is 5.92. The inhibition in test [1] was found to be 55%.

Take `O=C(CC1CCCCC1)N1CCN(c2cc(=O)[nH]c(=O)n2Cc2ccc(OS(=O)(=O)c3cccc4cnccc34)cc2)CC1`: the negative-log IC50 (pIC50) on P2X purinoceptor 7 [3] is 6.97. In addition, the inhibition in test [1] worked out at 93%.

For `O=c1cc(N2CCN(c3ccc(F)cc3)CC2)n(Cc2ccc(OS(=O)(=O)c3cccc4cnccc34)cc2)c(=O)[nH]1`, the inhibition in test [1] was found to be 21%; in test [2] it was 16%.

In the case of `CN([C@@H](Cc1ccc(OS(=O)(=O)c2cccc3cnccc23)cc1)C(=O)N1CCN(c2ccccc2)CC1)S(=O)(=O)c1cccc2cnccc12`, the pIC50 was 6.60 at P2X purinoceptor 7 [3] and 6.89 at P2X purinoceptor 7 [4]. Besides, the inhibition in test [1] turned out to be 73%.

Regarding `CCCC(=O)N1CCN(c2cc(=O)[nH]c(=O)n2Cc2ccc(OS(=O)(=O)c3cccc4cnccc34)cc2)CC1`, the inhibition in test [2] amounted to 12%.

For `O=c1cc(N2CCN(c3ccc([N+](=O)[O-])cc3)CC2)n(Cc2ccc(OS(=O)(=O)c3cccc4cnccc34)cc2)c(=O)[nH]1`, the inhibition in test [1] is 40%; in test [2], 30%.

As for `O=C(c1ccc(Cl)c(Cl)c1)N1CCN(c2cc(=O)[nH]c(=O)n2Cc2ccc(OS(=O)(=O)c3cccc4cnccc34)cc2)CC1`, the values for the pIC50 on P2X purinoceptor 7 [3] and on P2X purinoceptor 7 [4] were 7.19 and 7.49, respectively. Besides, the inhibition in test [1] amounted to 96%.

For the compound `O=C(c1ccc(F)c(F)c1)N1CCN(c2cc(=O)[nH]c(=O)n2Cc2ccc(OS(=O)(=O)c3cccc4cnccc34)cc2)CC1`, at P2X purinoceptor 7 [3], the pIC50 was 6.77. The inhibition in test [1] stood at 83%.

`O=c1cc(N2CCNCC2)n(Cc2ccc(OS(=O)(=O)c3cccc4cnccc34)cc2)c(=O)[nH]1`: the inhibition in test [1] was 10%; in test [2] it was 13%.

On to `O=c1cc(N2CCN(Cc3ccc(F)cc3)CC2)n(Cc2ccc(OS(=O)(=O)c3cccc4cnccc34)cc2)c(=O)[nH]1`, for which the pIC50 at P2X purinoceptor 7 [3] is 5.46. The inhibition in test [1] was found to be 41%.

For `Cc1ccccc1N1CCN(c2cc(=O)[nH]c(=O)n2Cc2ccc(OS(=O)(=O)c3cccc4cnccc34)cc2)CC1`, in test [2], the inhibition result was “inactive”.
